{"source": "patent US10307410B2", "about": "“Mcl-1 modulating compounds for cancer treatment” (CENTRE REGIONAL DE LUTTE CONTRE LE CANCER FRANCOIS BACLESSE, priority 2014, dated 2019)", "key": {"[1]": {"system": "SKOV3 chemoresistant ovarian cancer cells", "test": "Real-time cellular activity by impedancemetry (xCELLigence)", "assay_type": "cell-based, human", "conditions": "SKOV3, 25 μM Pyridoclax + 5 μM ABT-737", "procedure": "(§1) FIG. 4 represents the effect of the association of Pyridoclax with ABT-737 on chemoresistant ovarian cancer cells IGROV1-R10 (top) and SKOV3 (bottom). Cells were concomitantly (A, E) or sequentially (B) exposed to 25 μM Pyridoclax and 5 μM ABT-737, and cellular effects were assessed either longitudinally (A, B, E) or after 24 h (C, D, F). [A, B, E] real time cellular activity assessed by impedancmetry (xCELLigence technology), after concomitant exposure (A, E) or sequential exposure (B; 24 h Pyridoclax, then ABT-737). [C]: Cellular morphology and DNA content histograms after a 24 h concomitant exposure. [D and F]: PARP and caspase 3 cleavage after a 24 h concomitant exposure.\n(§2) Compound-mediated cytotoxicity was monitored using Real-Time Cell Analyzer multi-plate (RTCA MP) Instrument, xCELLigence System (Roche Applied Science, Mannheim, Germany). This system monitors cellular events in real time measuring electrical impedance across interdigitated micro-electrodes integrated on the bottom of tissue culture E-plates View (Roche). […] Thus, this index reflects changes in cell viability as described by Ke et al. (2011, Methods Mol Biol 740, 33-43). […] Impedance was continuously measured until the end of the treatment. Standard deviations of well replicates were analyzed with the RTCA Software."}, "[2]": {"system": "IGROV1-R10 chemoresistant ovarian cancer cells", "test": "Pyridoclax / ABT-737 association, apoptotic cell death", "assay_type": "cell-based", "procedure": "as §1\n(§3) Adherent and floating cells were pooled, washed with 1×PBS and centrifuged at 200 g for 5 min before staining by Annexin V, propidium iodide or both, as recommended by the manufacturer (Roche Diagnostic, Indianapolis, USA). Briefly, 100 μl of Annexin V—Flit or propidium iodide or both were added on the cells pellet (10^6 cells) and incubated 15 minutes at room temperature in obscurity. 500 μl of sample buffer was then added on the suspensions that were thereafter analyzed using a Gallios flow cytometer (Beckman Coulter, Roissy, France) and cell cycle distribution was determined using Kaluza acquisition software (Beckman Coulter).\nCells were rinsed with ice-cold PBS, suspended in a lysis buffer [RIPA:NaCl 150 mM, Tris (pH 8) 50 mM, Triton X100 1%, PMSF 4 mM, EDTA 5 mM, NaF 10 mM, NaPPi 10 mM, Na3OV4 1 mM, aprotinin 0.5 μl/ml and 4.6 ml ultra pure water] and incubated on ice for 30 minutes. Lysates were collected after centrifugation (13200 g, 10 min, 4° C.) and protein concentrations were determined using the Bradford assay (Bio-Rad, Hercules, USA). 20 μg of protein were separated by SDS-PAGE on a 4-12% gradient polyacrylamide gel (Invitrogen, Cergy-Pontoise, France) and transferred to Hybond-PVDF membranes (Amersham, Orsay, France). […]"}, "Noxa/Mcl-1 interaction": {"molecular_target": "T1, Noxa/Mcl-1 interaction (Homo sapiens, UniProt Q07820)", "T1 construct": "expressed in transfected cells; host or cells: HeLa cells", "T1 sequence (Q07820 whole entry)": "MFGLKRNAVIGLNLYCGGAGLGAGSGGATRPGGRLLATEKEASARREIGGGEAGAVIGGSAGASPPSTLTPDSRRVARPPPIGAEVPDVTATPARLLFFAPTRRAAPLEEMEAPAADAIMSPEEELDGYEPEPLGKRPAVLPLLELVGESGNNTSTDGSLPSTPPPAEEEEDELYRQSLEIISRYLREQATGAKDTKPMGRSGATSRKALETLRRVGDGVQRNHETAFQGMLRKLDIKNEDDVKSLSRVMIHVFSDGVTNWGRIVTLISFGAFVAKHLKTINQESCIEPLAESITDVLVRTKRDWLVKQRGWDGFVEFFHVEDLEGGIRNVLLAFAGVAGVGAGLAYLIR", "test": "BRET assay, Noxa/Mcl-1 interaction", "assay_type": "cell-based", "conditions": "BRET in Hela cells, 10 μM, 16 hours", "procedure": "Hela cells were seeded on 6-well plates and transfected with 200 ng/well of plasmid pRLuc-Bax, pRLuc-Puma or pRLuc-Noxa coding for BRET donors and 1 µg/well of peYFP-Bcl-xL or peYFP-Mcl-1 coding for BRET acceptors (or with pCMV-Bcl-xL or pCMV-Mcl-1 for control). Twenty-four hours after transfection, cells were trypsinized and re-seeded into white 96 well plate flat bottom, incubated for another day, and then treated with drugs for 16 hours at 10 μM. Light emission at 485 nm and 530 nm was measured consecutively using the Mithras fluorescence-luminescence detector LB 940 (Berthold) after adding the luciferase substrate, coelenterazine H (Uptima) at a final concentration of 5 μM. BRET ratios were calculated as described [Terrillon et al. (2003) Mol Endocrinol 17, 677-691, Vo et al. (2012) Eur J Med Chem., 286-93]."}, "[3]": {"system": "IGROV1-R10 ovarian cancer cells", "test": "DNA content histograms (sub-G1) by flow cytometry", "assay_type": "cell-based", "procedure": "(§4) Exponentially growing cells were transfected by siRNA as described below, and after 48 h, cells were continuously exposed to (Het)aromatic oligosystems (10, 25 or 50 μM) dissolved in DMSO (<0.1% of total volume) for 4 to 24 supplementary hours.\nCells were seeded in 25 cm^2 flasks the day before to reach 30-50% confluency at the time of transfection. The transfection INTERFERin™ reagent (Polyplus Transfection, Strasbourg. France) was added to siRNA diluted in Opti-MEM® reduced serum medium (Invitrogen, Cergy-Pontoise, France) and complexes formation was allowed to proceed for 15 min at RT before being applied to cells. […]\nas §3"}, "[4]": {"system": "IGROV1-R10 ovarian cancer cells", "test": "PARP and caspase 3 cleavage by western blot", "assay_type": "cell-based", "design": "key to PARP cleavage: +: a little band corresponding to the 85 kDa cleaved form of PARP is observable on the western blot; ++: a band corresponding to the 85 kDa cleaved form of PARP is clearly observable on the western blot; +++: PARP in nearly completely cleaved", "procedure": "as §4\nCells were seeded in 25 cm^2 flasks the day before to reach 30-50% confluency at the time of transfection. The transfection INTERFERin™ reagent (Polyplus Transfection, Strasbourg. France) was added to siRNA diluted in Opti-MEM® reduced serum medium (Invitrogen, Cergy-Pontoise, France) and complexes formation was allowed to proceed for 15 min at RT before being applied to cells. The final siRNA concentration in the flasks was 20 nM.\nCells were rinsed with ice-cold PBS, suspended in a lysis buffer [RIPA:NaCl 150 mM, Tris (pH 8) 50 mM, Triton X100 1%, PMSF 4 mM, EDTA 5 mM, NaF 10 mM, NaPPi 10 mM, Na3OV4 1 mM, aprotinin 0.5 μl/ml and 4.6 ml ultra pure water] and incubated on ice for 30 minutes. Lysates were collected after centrifugation (13200 g, 10 min, 4° C.) and protein concentrations were determined using the Bradford assay (Bio-Rad, Hercules, USA). 20 μg of protein were separated by SDS-PAGE on a 4-12% gradient polyacrylamide gel (Invitrogen, Cergy-Pontoise, France) and transferred to Hybond-PVDF membranes (Amersham, Orsay, France). After blocking non-specific binding sites for 1 hour at RT by 5% (w/v) non-fat dry milk in TBS with 0.1% (v/v) Tween20 (T-TBS), the membranes were incubated overnight at 4° C. with the following rabbit monoclonal antibody: PARP, caspase-3 and Bcl-xL, Bim (Cell Signaling Technology, Ozyme, Saint-Quentin-en-Yvelines, France), Mcl-1 (Santa Cruz, Le Perray-en-Yvelines, France), HSP-70, Noxa (Calbiochem, Fontenay-sous-Bois, France), (Cell Signalling) and Actin (Sigma-Aldrich, Saint-Quentin Fallavier, France). Membranes were then washed with T-TBS and incubated for 1 hour with the appropriate horseradish peroxidase-conjugated anti-rabbit or anti-mouse (Amersham, Orsay, France) secondary antibodies. Revelation was done using a luminescent Image Analyzer (GE Healthcare, Orsay, France)."}, "[5]": {"system": "IGROV1-R10 chemoresistant ovarian cancer cells", "test": "Real-time cellular activity by impedancemetry (xCELLigence)", "assay_type": "cell-based", "conditions": "IGROV1-R10, 25 μM Pyridoclax + 5 μM ABT-737", "procedure": "as §1, §2"}, "[6]": {"conditions": "Molecule + Bcl-xL targeting siRNA"}}}
{"smiles": "Cc1cc(-c2ncc(-c3cccnc3)cc2/C=C/c2ccccc2)cnc1-c1cccnc1", "note": "[Pyridoclax, 5,6′-di(pyridin-3-yl)-5′-methyl-3-((E)-styryl)-2,3′-bipyridine]", "values": [{"measurement": "cellular activity (impedancemetry)", "setting": "[1]", "result": "drastically decreased"}, {"measurement": "cell death, combination with ABT-737", "setting": "[2]; IGROV1-R10, 25 μM Pyridoclax + 5 μM ABT-737", "result": "massive apoptotic cell death"}, {"measurement": "cell death as single agent", "setting": "[2]; IGROV1-R10, single agent", "result": "neither ABT-737 nor Pyridoclax induced cell death as single agents"}, {"measurement": "effect on Noxa/Mcl-1 interaction", "setting": "Noxa/Mcl-1 interaction", "result": "able to disrupt"}, {"measurement": "sub-G1 Peak on the DNA content histogram", "setting": "[3]; IGROV1-R10, 10 nM siXL1 48 h then 25 μM Pyridoclax 24 h", "result": "over 50%"}, {"measurement": "time after beginning of exposure at which apoptosis was observed", "setting": "[3]; IGROV1-R10, siXL1 + Pyridoclax", "result": "2 to 4", "unit": "h"}, {"measurement": "events in sub-G1 fraction", "setting": "[3]; IGROV1-R10, siXL1 + Pyridoclax, after 4 h exposure", "result": 37, "unit": "%"}, {"measurement": "Sub-G1 (%)", "setting": "[3]; [6]", "result": 53.6, "unit": "%"}, {"measurement": "cleavage of PARP and caspase 3", "setting": "[4]; IGROV1-R10, Pyridoclax associated to siXL1", "result": "complete cleavage of PARP and caspase 3"}, {"measurement": "PARP cleavage", "setting": "[4]; [6]", "result": "+++"}, {"measurement": "cellular activity (impedancemetry)", "setting": "[5]", "result": "drastically decreased"}]}
